The structures appear in SMILES notation.

The data set has as its system mouse peritoneal macrophage. The following applies: Table 2; dose 5 μM; microscopic observation.

In the case of `Cc1ccc2[nH]c(SCCCCCSc3nc4cc(C)ccc4[nH]3)nc2c1` [Compound I-1, 1,5-bis(5-methyl-2-benzimidazoylthio)pentane], the Cytotoxicity result is on record as “none”.
As for `Cc1cc2nc(SCCCCCSc3nc4cc(C)c(C)cc4[nH]3)[nH]c2cc1C` [Compound I-2, 1,5-bis(5,6-dimethyl-2-benzimidazoylthio)pentane], the entry is “none”; as for `Clc1ccc2[nH]c(SCCCCCSc3nc4cc(Cl)ccc4[nH]3)nc2c1` [Compound I-3, 1,5-bis(5-chloro-2-benzimidazoylthio)pentane], “none”.
As for `Clc1cc2nc(SCCCCCSc3nc4cc(Cl)c(Cl)cc4[nH]3)[nH]c2cc1Cl` [Compound I-4, 1,5-bis(5,6-dichloro-2-benzimidazoylthio)Pentane], the entry is “none”.
On to `CC(=O)n1c(SCCCCCSc2nc3ccccc3n2C(C)=O)nc2ccccc21` [II-1, 1,5-bis(1-acetyl-2-benzimidazoylthio)pentane], for which the Cytotoxicity entry was “none”.
For `CCC(=O)n1c(SCCCCCSc2nc3ccccc3n2C(=O)CC)nc2ccccc21` [II-2, 1,5-bis(1-propionyl-2-benzimidazoylthio)pentane] the value was “none”; for `CCCCC(CC)C(=O)n1c(SCCCCCSc2nc3ccccc3n2C(=O)C(CC)CCCC)nc2ccccc21` (centres unmarked) [II-4, 1,5-bis(1-(2-ethylhexanoyl)-2-benzimidazoylthio) pentane], “none”; for `O=C(c1ccc(Cl)cc1)n1c(SCCCCCSc2nc3ccccc3n2C(=O)c2ccc(Cl)cc2)nc2ccccc21` [II-6, 1,5-bis(1-(4-chlorobenzoyl)-2-benzimidazoylthio) pentane], “none”.
For `CCC(=O)n1c(SCCCCSc2nc3ccccc3n2C(=O)CC)nc2ccccc21` [II-9, 1,4-bis(1-propionyl-2-benzimidazoylthio)butane] the value was “none”.
For `CCC(=O)n1c(SCCCCCCSc2nc3ccccc3n2C(=O)CC)nc2ccccc21` [II-10, 1,6-bis(1-propionyl-2-benzimidazoylthio)hexane] the value was “none”; for `CCC(=O)n1c(SCCCCCCCCSc2nc3ccccc3n2C(=O)CC)nc2ccccc21` [II-11, 1,8-bis(1-propionyl-2-benzimidazoyl-thio)octane], “none”.
As to `CCC(=O)n1c(SCc2ccc(CSc3nc4ccccc4n3C(=O)CC)cc2)nc2ccccc21` [II-12, 1,4-bis(1-propionyl-2-benzimidazoylthiomethyl)benzene], the Cytotoxicity entry was “none”.
For `CCC(=O)n1c(SCc2cccc(CSc3nc4ccccc4n3C(=O)CC)c2)nc2ccccc21` [II-13, 1,3-bis(1-propionyl-2-benzimidazoylthiomethyl)benzene], the Cytotoxicity entry is recorded as “none”.
As for `CCC(=O)n1c(SCCCCCSc2nc3cc(C)c(C)cc3n2C(=O)CC)nc2cc(C)c(C)cc21` [II-15, 1,5-bis(5,6-dimethyl-1-propionyl-2-benzimidazoylthio) pentane], the entry is “none”; as for `CCC(=O)n1c(SCCCCCSc2nc3ccc(Cl)cc3n2C(=O)CC)nc2cc(Cl)ccc21` [II-20, 1-(5-chloro-1-propionyl-2-benzimidazoylthio)-5-(6-chloro-1-propionyl-2-benzimidazoylthio)pentane], “none”; as for `Cn1c(SCCCCCSc2nc3ccccc3n2C)nc2ccccc21` [II-28, 1,5-bis(1-methyl-2-benzimidazoylthio)pentane], “none”.
As for `CCCn1c(SCCCCCSc2nc3ccccc3n2CCC)nc2ccccc21` [II-29, 1,5-bis(1-propyl-2-benzimidazoylthio)pentane], the entry is “none”; as for `CCCCCCCCn1c(SCCCCCSc2nc3ccccc3n2CCCCCCCC)nc2ccccc21` [II-30, 1,5-bis(l-octyl-2-benzimidazoylthio)pentane], “none”.
As for `CCCCC(CC)Cn1c(SCCCCCSc2nc3ccccc3n2CC(CC)CCCC)nc2ccccc21` (centres unmarked) [II-31, 1,5-bis(1-(2-ethylhexyl)-2-benzimidazoylthio)pentane], the entry is “none”.
For `c1ccc(Cn2c(SCCCCCSc3nc4ccccc4n3Cc3ccccc3)nc3ccccc32)cc1` [II-32, 1.5-bis(1-benzyl-2-benzimidazoylthio)pentane], the Cytotoxicity result is “none”.
As for `Cn1c(SCCCCCSc2nc3cc(Cl)c(Cl)cc3n2C)nc2cc(Cl)c(Cl)cc21` [II-33, 1,5-bis(5,6-dichloro-1-methyl-2-benzimidazoylthio) pentane], the entry is “none”; as for `CCCn1c(SCCCCCSc2nc3cc(Cl)c(Cl)cc3n2CCC)nc2cc(Cl)c(Cl)cc21` [II-34, 1,5-bis(5,6-dichloro-1-propyl-2-benzimidazoylthio) pentane], “none”.
For `Cn1c(SCCCCCCCCSc2nc3ccccc3n2C)nc2ccccc21` [II-35, 1,8-bis(1-methyl-2-benzimidazoylthio)octane] the value was “none”.
As for `c1ccc2[nH]c(SCCCCSc3nc4ccccc4[nH]3)nc2c1` [IV-3, 1,4-bis(2-benzimidazoylthio)butane], the entry is “none”; as for `COc1ccc2[nH]c(SCCCCCSc3nc4cc(OC)ccc4[nH]3)nc2c1` [IV-4, 1,5-bis(5-methoxyl-2-benzimidazoylthio)pentane], “none”.
Consider `O=[N+]([O-])c1ccc2[nH]c(SCCCCCSc3nc4cc([N+](=O)[O-])ccc4[nH]3)nc2c1` [IV-5, 1,5-bis(5-nitro-2-benzimidazoylthio)pentane], for which the Cytotoxicity entry is “none”.
As for `CCC(=O)Nc1ccc2[nH]c(SCCCCCSc3nc4cc(NC(=O)CC)ccc4[nH]3)nc2c1` [IV-8, 1,5-bis(5-propanamido-2-benzimidazoylthio)pentane], the entry is “none”; as for `c1ccc2[nH]c(SCc3ccc(CSc4nc5ccccc5[nH]4)cc3)nc2c1` [IV-13, 1,4-bis(2-benzimidazoylthiomethyl)benzene], “none”.
For `c1cc(CSc2nc3ccccc3[nH]2)cc(CSc2nc3ccccc3[nH]2)c1` [IV-14, 1,3-bis(2-benzimidazoylthiomethyl)benzene] the value was “none”.

(Values after US5962493A, “2-mercaptobenzimidazole derivatives and antihyperlipemic agent or antiarteriosclerotic agent containing the same” (priority 1997, dated 1999).)
